{
  "source": "patent US7378265B2",
  "about": "(priority 1998, dated 2008)",
  "system": "recombinant retroviruses expressing the LacZ marker gene",
  "type": "cell-based, retrovirus",
  "data": [
    {"smiles": "OC[C@H]1O[C@@H]2O[C@H]3[C@H](O)[C@@H](O)[C@@H](O[C@H]4[C@H](O)[C@@H](O)[C@@H](O[C@H]5[C@H](O)[C@@H](O)[C@@H](O[C@H]6[C@H](O)[C@@H](O)[C@@H](O[C@H]7[C@H](O)[C@@H](O)[C@@H](O[C@H]8[C@H](O)[C@@H](O)[C@@H](O[C@H]1[C@H](O)[C@H]2O)O[C@@H]8CO)O[C@@H]7CO)O[C@@H]6CO)O[C@@H]5CO)O[C@@H]4CO)O[C@@H]3CO", "note": "[β-cyclodextrin]", "values": [
      {"measurement": "enhancement of the retroviral inactivation, additional factor", "value": 10}
    ]}
  ]
}
